Assay results as given in patent publication US20240050513A1, “COMPOSITION FOR PREVENTING, AMELIORATING, OR TREATING DISEASE CAUSED BY PROTEIN NITRATION […] WITH TERMINAL TYROSINE AS EFFECTIVE COMPONENT” (INDUSTRY-ACADEMIC COOPERATION FOUNDATION GYEONGSANG …, priority 2021, published 2024).

Assays:
[1] = tested on: kainic acid-treated ICR mice; assay: Seizure level in kainic acid epileptic seizure model; format: in vivo
Protocol: Four-week-old male ICR mice were fed with normal diet, tyrosine (L-Tyr), or tyrosine-containing peptide (3xYQ, 1xYW, or 3xYW) for one week. […] Kainic acid (KA) was dissolved in saline by heating in a water bath, resulting in a 4.5 mg/ml KA solution. The resulting KA solution was then intraperitoneally injected at a dose of 36 mg/kg, and seizure level and symptoms were recorded for 2 hours.

[2] = tested on: chronic immobilization stress C57BL/6 mice; assay: Cognitive function (ORT/OLT) in chronic immobilization stress model; format: in vivo; details: stress group, peptide-supplemented diet vs normal diet
Protocol: To analyze the long-term memory capacity of animals following the peptide diet of the present invention, both the object recognition test (ORT) and object location recognition test (OLT) were conducted (FIG. 1). The tests consisted of three phases: habituation, familiarization, and test. During the habituation phase, the animals were acclimated to the testing apparatus for 10 minutes per day over two days. On the third day at the familiarization phase, the animals were allowed to explore two identical objects for 10 minutes. Subsequently, on the fourth day at the test phase, one of the objects was replaced with a novel object, and the animals were allowed to explore for 10 minutes, with result recorded during the initial 5 minutes was used as test data. The object recognition test (ORT) index was calculated using the following formula.
Discrimination index=(N−F)/(N+F) • N: Time spent for exploring new object • F: Time spent for exploring familiar object
After 24 hours of performing the ORT, the location of the familiar object was changed, and the animals were allowed to explore for 5 minutes. During the total exploration time, the ratio of time spent exploring the object with a changed location was calculated to determine the object location recognition test (OLT) index.
A total of 28 seven-week-old male C57BL/6 mice were divided into two groups: a control group and a stress group. […]

[3] = tested on: glutamine synthetase (GS); assay: Hippocampal glutamine synthetase activity in kainic acid epileptic seizure model; details: survived mice after kainic acid
Protocol: Kainic acid (KA) was dissolved in saline by heating in a water bath, resulting in a 4.5 mg/ml KA solution. The resulting KA solution was then intraperitoneally injected at a dose of 36 mg/kg, and seizure level and symptoms were recorded for 2 hours. The brain tissues (prefrontal cortex and hippocampus) of the mice that survived 16 hours or 5 days after the KA injection were collected.
To a 96-well plate, 2 μl of hippocampal homogenate was added, and 50 μl of 50 mM imidazole-HCl buffer (pH 6.8) were added to adjust the volume to 50 μl. Then, 50 μl of GS assay buffer (50 mM imidazole-HCl, pH 6.8, 25 mM L-glutamine, 12.5 mM hydroxylamine, 12.5 mM sodium arsenate, 1 mM MnCl2, and 0.08 mM ADP) were added and the reaction was allowed to occur at 37° C. for approximately 40 minutes. […] To terminate the reaction, 100 μl of stop solution (90 mM FeCl3, 1.8 N HCl, and 1.45% w/v trichloroacetic acid) were added to both the samples and the standard substance, and the absorbance was measured at 560 nm. The GS activity in each sample was determined by comparing it with the standard curve. GS activity was expressed as the generation amount of γ-glutamylhydroxamate, which is produced as a final product, and described in unit of μM/min/μg protein.

[4] = tested on: chronic immobilization stress C57BL/6 mice; details: stress group, peptide diet vs normal diet
Protocol: A total of 28 male C57BL/6 mice at 7 weeks of age were divided into two groups: a control group (CTL) and a stress group (STR). The stress group was subjected to chronic immobilization stress for 15 days. Specifically, each mouse in the stress group was individually placed in a restrainer for 2 hours daily from […] to induce chronic immobilization stress. The control group (CTL) and stress group (STR) were further classified based on their diets. […] After the completion of the 15-day chronic immobilization stress, the mice were subjected to a sucrose preference test (SPT). Blood samples and prefrontal cortex (PFC) tissues were collected from the mice for subsequent test.
For the analysis of anti-depressive effect, blood and PFC tissues were collected from mice that underwent chronic immobilization stress. The blood collected from mice was centrifuged at 1,000×g for 10 minutes at 4° C. to separate the plasma, and the supernatant was collected and diluted 1/20 with PBS to prepare a sample. The corticosterone concentration in the plasma was then measured using the Corticosterone EIA kit (Cayman) by following the manufacturer's instructions.
In addition, the plasma diluted with PBS at a ⅓ ratio and the PFC tissue lysate (50 μg) were prepared. The ROS/RNS (reactive oxygen species/reactive nitrogen species) level in the plasma and PFC tissues was measured using the ROS/RNS assay kit (Cell Biolabs) according to the manufacturer's instructions.
In addition, the depression was evaluated by measuring the sucrose preference of mice that had undergone 15 days of chronic immobilization stress. The sucrose preference test was conducted over a total of 4 days. Equal amounts of 0.1 M sucrose solution and water were provided in identical bottles of the same size and shape. On the first day, mice were given access to 0.1 M sucrose solution and water for 24 hours. On the second day, the positions of the sucrose solution and water bottles were switched, and mice were given access for 24 hours. On the third day, no sucrose solution or water was provided. On the fourth day, mice were again given access to equal amounts of 0.1 M sucrose solution and water for 3 hours, the positions were then switched, and access was provided for another 3 hours. The amount of sucrose solution and water consumed during the 6-hour period on the fourth day was measured, and the sucrose preference (%) was calculated according to the following formula.
Sucrose preference (%)=Sucrose intake amount/(Water intake amount+Sucrose intake amount)×100

[5] = tested on: glutamine synthetase (GS); assay: GS activity and GS tyrosine nitration in PFC, chronic immobilization stress model; format: in vivo, C57BL/6 mice; details: stress group
Protocol: Using the prefrontal cortex (PFC) lysate samples from mice obtained after the completion of chronic immobilization stress, GS activity and GS expression level were measured by following the method described above.
Furthermore, the level of tyrosine nitration within GS was measured by using immunoprecipitation (IP)-WB. The immunoprecipitation analysis of tyrosine-nitrated GS was performed using an anti-nitrotyrosine antibody (ab61392, Abcam) and Protein A/G PLUS-Agarose (Santa Cruz) according to the manufacturer's protocol.

N[C@@H](Cc1ccc(O)cc1)C(=O)O [L-Tyr, L-tyrosine, reference compound]
seizure level ([1]; 5xL-Tyr diet vs normal diet): statistically significantly decreased

tyrosine-tryptophan [YW]
cognitive function [2]: enhanced cognitive function | activity of the glutamine synthetase in the hippocampal tissue ([3]; 1xYW): increased | activity of the glutamine synthetase in the hippocampal tissue ([3]; 3xYW): increased | seizure level ([1]; 1xYW diet one week vs normal diet): statistically significantly decreased

glutamine-tyrosine [QY]
ROS/RNS level in PFC tissue [4]: decreased | sucrose preference [4]: increased | tyrosine nitration level of GS ([5]; IP-WB, peptide diet vs normal diet): statistically significant decrease | GS activity ([5]; peptide diet (330 mg/kg) vs normal diet): statistically significant increase
